From patent US20090203800A1, “Cytostatic Composition” (priority 2008, published 2009)

Assays:
Assay type in all cases: cell-based
Details in all cases: 5-FU 1.0 mg/ml
[1] = tested on: 27 human tumor xenografts; assay: clonogenic assay, whole test panel
Experimental: The antitumor efficacy of cytostatic composition as described above was evaluated in 27 human tumor xenografts in vitro using a clonogenic assay. The tumor test panel comprised 1 to 4 models of 15 different human tumor types, which were bladder cancer, colon, gastric, head and neck, liver, non small cell lung (adeno and large cell), small cell lung, mammary, ovary, pancreatic, prostate and renal cancer as well as melanoma, pleuramesothelioma, and sarcoma. The cytostatic composition was studied at 6 concentrations ranging from 0.001% to 100.0%. Antitumor effects were recorded as inhibition of colony formation in relation to untreated controls (T/C-values).
In the clonogenic assay (=tumor colony assay, TCA), inhibition of colony formation of tumor stem cells growing in soft agar is examined. […]
The clonogenic assay was performed in a 24-well format according to a modified two-layer soft agar assay introduced by Hamburger & Salmon. […] Cultures were incubated at 37° C. and 7.5% CO2 in a humidified atmosphere for 6-18 days and monitored closely for colony growth using an inverted microscope. […]
with x the specific tumor model, and n the total number of tumor models studied. If an IC50- or IC70-value could not be determined within the examined dose range (because a compound was either too active or lacked activity), the lowest or highest concentration studied was used for the calculation. […]

[2] = tested on: human tumor xenograft LXFL 529 (Lung, NSC); assay: clonogenic assay (tumor colony assay)
Experimental: (§1) In the clonogenic assay (=tumor colony assay, TCA), inhibition of colony formation of tumor stem cells growing in soft agar is examined. Tumor stem cells, which are responsible for growth, the metastatic and infiltrative potential of a tumor, are prepared directly from human tumor xenografts growing in nude mice.
(§2) Cytostatic was tested at 6 concentrations. The highest concentration tested was 0.004%, as shown below, which was the maximum allowed concentration of the vehicle in the test set as 100% of Cytostatic. IMDM supplemented with 10% v/v saline solution was also used as a control vehicle.
(§3) Solid human tumor xenografts growing subcutaneously in serial passages in thymus aplastic nude mice (NMRI nu/nu strain,) were removed under sterile conditions, mechanically disaggregated and subsequently incubated with an enzyme cocktail consisting of collagenase type IV (41 U/ml) (Sigma), DNase I (125 U/ml) (Roche), hyaluronidase type III (100 U/ml) (Sigma) and dispase II (1.0 U/ml) (Roche) in RPMI 1640-Medium (Life Technologies) at 37° C. for 45 minutes. Cells were passed through sieves of 200 μm and 50 μm mesh size and washed twice with sterile PBS-buffer. The percentage of viable cells was determined in a Neubauer-hemocytometer using trypan blue exclusion.
(§4) The clonogenic assay was performed in a 24-well format according to a modified two-layer soft agar assay introduced by Hamburger & Salmon. The bottom layer consisted of 0.2 ml/well IMDM (Life Technologies) (supplemented with 20% (v/v) fetal calf serum (Sigma), 0.01% (w/v) gentamicin (Life Technologies) and 0.75% (w/v) agar). 2×10^4 to 4×10^4 cells were added to 0.2 ml of the same culture medium supplemented with 0.4% (w/v) agar and plated in 24-multiwell dishes onto the bottom layer. The test compound was applied by continuous exposure (drug overlay) in 0.2 ml culture medium. Every dish included six untreated control wells and drug-treated groups in triplicate at 6 concentrations. Cultures were incubated at 37° C. and 7.5% CO2 in a humidified atmosphere for 6-18 days and monitored closely for colony growth using an inverted microscope. Within this period, in vitro tumor growth led to the formation of colonies with a diameter of >50 μm. At the time of maximum colony formation, counts were performed with an automatic image analysis system (OMNICON 3600, Biosys GmbH). 24 hours prior to evaluation, vital colonies were stained with a sterile aqueous solution of 2-(4-iodophenyl)-3-(4-nitrophenyl)-5-phenyltetrazolium chloride (1 mg/ml, 100 μl/well) (Sigma).
(§5) Drug effects were expressed by the percentage of colony formation, obtained by comparison of the mean number of colonies in the treated wells with the mean colony count of the untreated controls (relative colony count expressed by the test-versus-control value, T/C-value [%]):
(§6) IC50- and IC70-values, being the drug concentrations necessary to inhibit colony formation by 50% (T/C=50%) and 70% (T/C=30%), respectively, were determined by plotting compound concentration versus relative colony count. Mean IC50- and IC70-values were calculated according to the formula

[3] = tested on: human tumor xenograft MEXF 514 (Melanoma); assay: clonogenic assay (tumor colony assay)
Experimental: as §1, §2, §3, §4, §5, §6

[4] = tested on: human tumor xenograft MEXF 989 (Melanoma); assay: clonogenic assay (tumor colony assay)
Experimental: as §1, §2, §3, §4, §5, §6

[5] = tested on: human tumor xenograft PRXF MRIH1579 (Prostate); assay: clonogenic assay (tumor colony assay)
Experimental: as §1, §2, §3, §4, §5, §6

[6] = tested on: human tumor xenograft CXF 1103 (Colon); assay: clonogenic assay (tumor colony assay)
Experimental: as §1, §2, §3, §4, §5, §6

[7] = tested on: human tumor xenograft PXF 1118 (Pleuramesothelioma); assay: clonogenic assay (tumor colony assay)
Experimental: as §1, §2, §3, §4, §5, §6

[8] = tested on: human tumor xenograft MAXF 1384 (Breast); assay: clonogenic assay (tumor colony assay)
Experimental: as §1, §2, §3, §4, §5, §6

[9] = tested on: human tumor xenograft RXF 631 (Kidney); assay: clonogenic assay (tumor colony assay)
Experimental: as §1, §2, §3, §4, §5, §6

[10] = tested on: human tumor xenograft LXFA 289 (Lung, NSC); assay: clonogenic assay (tumor colony assay)
Experimental: as §1, §2, §3, §4, §5, §6

[11] = tested on: human tumor xenograft HNXF 536 (Head & neck); assay: clonogenic assay (tumor colony assay)
Experimental: as §1, §2, §3, §4, §5, §6

[12] = tested on: human tumor xenograft PRXF DU145 (Prostate); assay: clonogenic assay (tumor colony assay)
Experimental: as §1, §2, §3, §4, §5, §6

[13] = tested on: human tumor xenograft MEXF 1539 (Melanoma); assay: clonogenic assay (tumor colony assay)
Experimental: as §1, §2, §3, §4, §5, §6

[14] = tested on: human tumor xenograft MAXF 401 (Breast); assay: clonogenic assay (tumor colony assay)
Experimental: as §1, §2, §3, §4, §5, §6

[15] = tested on: human tumor xenograft LXFA 526 (Lung, NSC); assay: clonogenic assay (tumor colony assay)
Experimental: as §1, §2, §3, §4, §5, §6

[16] = tested on: human tumor xenograft LXFS 615 (Lung, SC); assay: clonogenic assay (tumor colony assay)
Experimental: as §1, §2, §3, §4, §5, §6

[17] = tested on: human tumor xenograft LXFL 1647 (Lung, NSC); assay: clonogenic assay (tumor colony assay)
Experimental: as §1, §2, §3, §4, §5, §6

[18] = tested on: human tumor xenograft OVXF 899 (Ovary); assay: clonogenic assay (tumor colony assay)
Experimental: as §1, §2, §3, §4, §5, §6

[19] = tested on: human tumor xenograft OVXF 550 (Ovary); assay: clonogenic assay (tumor colony assay)
Experimental: as §1, §2, §3, §4, §5, §6

[20] = tested on: human tumor xenograft LXFS 650 (Lung, SC); assay: clonogenic assay (tumor colony assay)
Experimental: as §1, §2, §3, §4, §5, §6

[21] = tested on: human tumor xenograft BXF 1218 (Bladder); assay: clonogenic assay (tumor colony assay)
Experimental: as §1, §2, §3, §4, §5, §6

[22] = tested on: human tumor xenograft MAXF 1322 (Breast); assay: clonogenic assay (tumor colony assay)
Experimental: as §1, §2, §3, §4, §5, §6

[23] = tested on: human tumor xenograft PAXF 736 (Pancreas); assay: clonogenic assay (tumor colony assay)
Experimental: as §1, §2, §3, §4, §5, §6

[24] = tested on: human tumor xenograft LIXF 575 (Liver); assay: clonogenic assay (tumor colony assay)
Experimental: as §1, §2, §3, §4, §5, §6

[25] = tested on: human tumor xenograft SXF 627 (Sarcoma); assay: clonogenic assay (tumor colony assay)
Experimental: as §1, §2, §3, §4, §5, §6

[26] = tested on: human tumor xenograft CXF 280 (Colon); assay: clonogenic assay (tumor colony assay)
Experimental: as §1, §2, §3, §4, §5, §6

[27] = tested on: human tumor xenograft GXF 1172 (Stomach); assay: clonogenic assay (tumor colony assay)
Experimental: as §1, §2, §3, §4, §5, §6

[28] = tested on: human tumor xenograft RXF 944LX (Kidney); assay: clonogenic assay (tumor colony assay)
Experimental: as §1, §2, §3, §4, §5, §6

O=c1[nH]cc(F)c(=O)[nH]1 [5-FU, 5-fluorouracil]
antitumor activity of positive control of growth inhibition [1]: good antitumor activity | 5-FU control, T/C [%] [2]: 0% | 5-FU control, T/C [%] class [2]: +++ (+++ (T/C ≦ 10)) | 5-FU control, T/C [%] [3]: 4% | 5-FU control, T/C [%] class [3]: +++ (+++ (T/C ≦ 10)) | 5-FU control, T/C [%] [4]: 0% | 5-FU control, T/C [%] class [4]: +++ (+++ (T/C ≦ 10)) | 5-FU control, T/C [%] [5]: 7% | 5-FU control, T/C [%] class [5]: +++ (+++ (T/C ≦ 10)) | 5-FU control, T/C [%] [6]: 10% | 5-FU control, T/C [%] class [6]: +++ (+++ (T/C ≦ 10)) | 5-FU control, T/C [%] [7]: 2% | 5-FU control, T/C [%] class [7]: +++ (+++ (T/C ≦ 10)) | 5-FU control, T/C [%] [8]: 4% | 5-FU control, T/C [%] class [8]: +++ (+++ (T/C ≦ 10)) | 5-FU control, T/C [%] [9]: 4% | 5-FU control, T/C [%] class [9]: +++ (+++ (T/C ≦ 10)) | 5-FU control, T/C [%] [10]: 12% | 5-FU control, T/C [%] class [10]: ++ (++ (10 < T/C < 30)) | 5-FU control, T/C [%] [11]: 9% | 5-FU control, T/C [%] class [11]: +++ (+++ (T/C ≦ 10)) | 5-FU control, T/C [%] [12]: 1% | 5-FU control, T/C [%] class [12]: +++ (+++ (T/C ≦ 10)) | 5-FU control, T/C [%] [13]: 0% | 5-FU control, T/C [%] class [13]: +++ (+++ (T/C ≦ 10)) | 5-FU control, T/C [%] [14]: 4% | 5-FU control, T/C [%] class [14]: +++ (+++ (T/C ≦ 10)) | 5-FU control, T/C [%] [15]: 2% | 5-FU control, T/C [%] class [15]: +++ (+++ (T/C ≦ 10)) | 5-FU control, T/C [%] [16]: 14% | 5-FU control, T/C [%] class [16]: ++ (++ (10 < T/C < 30)) | 5-FU control, T/C [%] [17]: 5% | 5-FU control, T/C [%] class [17]: +++ (+++ (T/C ≦ 10)) | 5-FU control, T/C [%] [18]: 31% | 5-FU control, T/C [%] class [18]: + (+ (30 ≦ T/C ≦ 50)) | 5-FU control, T/C [%] [19]: 33% | 5-FU control, T/C [%] class [19]: + (+ (30 ≦ T/C ≦ 50)) | 5-FU control, T/C [%] [20]: 0% | 5-FU control, T/C [%] class [20]: +++ (+++ (T/C ≦ 10)) | 5-FU control, T/C [%] [21]: 2% | 5-FU control, T/C [%] class [21]: +++ (+++ (T/C ≦ 10)) | 5-FU control, T/C [%] [22]: 0% | 5-FU control, T/C [%] class [22]: +++ (+++ (T/C ≦ 10)) | 5-FU control, T/C [%] [23]: 5% | 5-FU control, T/C [%] class [23]: +++ (+++ (T/C ≦ 10)) | 5-FU control, T/C [%] [24]: 4% | 5-FU control, T/C [%] class [24]: +++ (+++ (T/C ≦ 10)) | 5-FU control, T/C [%] [25]: 2% | 5-FU control, T/C [%] class [25]: +++ (+++ (T/C ≦ 10)) | 5-FU control, T/C [%] [26]: 21% | 5-FU control, T/C [%] class [26]: ++ (++ (10 < T/C < 30)) | 5-FU control, T/C [%] [27]: 15% | 5-FU control, T/C [%] class [27]: ++ (++ (10 < T/C < 30)) | 5-FU control, T/C [%] [28]: 1% | 5-FU control, T/C [%] class [28]: +++ (+++ (T/C ≦ 10))
